How the values were obtained:
[1] = target: T1, StAR START domain (GSV-StAR) (Mus musculus, UniProt P51557); test: IgG-bead immunoisolation from yeast lysate, LC-MS of bound metabolites; assay type: binding; details: endogenous yeast metabolite, enriched over GV control
T1 sequence (P51557 66-274 limits assumed): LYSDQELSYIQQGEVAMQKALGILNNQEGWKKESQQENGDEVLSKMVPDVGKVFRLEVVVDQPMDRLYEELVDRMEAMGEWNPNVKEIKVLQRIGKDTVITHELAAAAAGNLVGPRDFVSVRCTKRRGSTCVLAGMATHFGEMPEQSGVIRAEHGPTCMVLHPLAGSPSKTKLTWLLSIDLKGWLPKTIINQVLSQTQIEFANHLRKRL

[2] = target: T2, PCTP START domain (GSV-PCTP) (Homo sapiens, UniProt Q9UKL6); test: as above; assay type: binding; details: endogenous yeast metabolite, enriched over GV control
T2 sequence (Q9UKL6 1-212 limits assumed): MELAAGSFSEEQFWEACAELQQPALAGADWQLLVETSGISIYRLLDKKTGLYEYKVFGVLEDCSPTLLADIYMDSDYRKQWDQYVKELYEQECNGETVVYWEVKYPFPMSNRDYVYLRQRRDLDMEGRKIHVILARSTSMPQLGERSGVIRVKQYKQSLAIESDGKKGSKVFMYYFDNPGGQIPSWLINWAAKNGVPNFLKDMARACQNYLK

| SMILES | IgG-bead immunoisolation from yeast lysate, LC-MS of bound metabolites [1] | IgG-bead immunoisolation from yeast lysate, LC-MS of bound metabolites [2] |
| --- | --- | --- |
| CC(C)=CCC[C@@H](C)[C@H]1CC[C@@]2(C)C3=C(CC[C@]12C)[C@@]1(C)CC[C@H](O)C(C)(C)[C@@H]1CC3 [lanosterol] | lanosterol and squalene, were also significantly enriched for the START domain from StAR | several metabolites that were shared with StAR (e.g. lanosterol, squalene |
| CCCCC/C=C\C/C=C\CCCCCCCC(N)=O [linoleamide] |  | lipids including sphinganine, sphingosine, behenic acid and linoleamide |
| CC(C)=CCC/C(C)=C/CC/C(C)=C/CC/C=C(\C)CC/C=C(\C)CCC=C(C)C [squalene] | lanosterol and squalene, were also significantly enriched for the START domain from StAR | several metabolites that were shared with StAR (e.g. lanosterol, squalene |
